Source: patent US10493164B2, “Method for preventing and treating adhesions” (Joint Stock Company “Pharmasyntez”, priority 2011, dated 2019)

System: Adhesions in the peritoneal cavity
Experiment: Adhesions in the peritoneal cavity generated in rats by caecum injury and abdominal wall scarification
Format: in vivo, Wistar rats
Protocol: (§1) Adhesions in the peritoneal cavity were generated in laboratory animals (Wistar rats, 9 months of age, weight of 220-250 g) by injuring the surface of caecum and abdominal wall scarification in the injured area. The study was conducted in compliance with the principles of the European Convention for the Protection of Vertebrate Animals used for Experimental and other Scientific Purposes (Strasbourg, France, 1986), as well as with regulations for humane treatment specified in Guidance for Proper Conduct of Animal Experiments (Attachment to Order No. 755 of the Ministry of Health of the USSR, dated Aug. 12, 1977).
Ten laboratory animals were used in this study. They were divided into 2 groups: the experimental group and the control group.
The calculation was based on the minimum volume of solution required to moisten the peritoneal surface (diZerega G. S. Peritoneum, peritoneal healing and adhesion formation/G. S. diZerega//in: Perotoneal surgery: Ed. G. S. diZerega.—Berlin—Heidelberg—New York: Springer, 2006.—P. 3-38), and the concentration was calculated on the basis of IC50 in the boundary layer of cells. The control animals received a corresponding amount of normal saline solution.
On Day 28 after the abdominal cavity being injured, all animals were autopsied for the examination of abdominal cavity organs and the assessment of the severity and incidence of adhesions, deformation of abdominal cavity organs and distribution of different types of adhesions. The severity of adhesions was scored according to micro- and macroscopic adhesion scales [Micronized purified flavonoid fraction may prevent formation of intraperitoneal adhesions in rats//H. G. Yilmaz, I. H. Tacyildiz, C. Keles et al.//Fertil. Steril.—2005.—Vol. 84, Suppl. 2.—P 1083-1087].
The visceral peritoneum and abdominal organs involved in adhesion formation were examined histologically after fixation in FineFIX solution (Milestone), paraffin filling, staining with hematoxylin-eosin and van Gieson's staining.
as §1, with “surface of the caecum and” for “surface of caecum and”
Thirty laboratory animals were used in this study. They were divided into 2 groups: the experimental group and the control group. […]

Row | Molecule | signs of adhesions in histological section of intestinal wall (van Gieson's staining) (Example 5, FIG. 1, abdominal trauma zone and area of postoperative suture) | cases of intestinal wall adhesions (Example 5: 3 ml sterile solution 10 μg/ml injected once before celiorrhaphy, autopsy Day 28) | severity of adhesion formation (score, micro- and macroscopic adhesion scales) (Example 5: 3 ml, 10 μg/ml, once, Day 28, control scored 7, p<0.01) | signs of adhesions in histological section of intestinal wall (van Gieson's staining) (Example 6, FIG. 4, 30 days after modelling)
1 | C[S+]([O-])c1ccc(-c2nc(-c3ccc(F)cc3)c(-c3ccncc3)[nH]2)cc1 (stereo not shown) [SB203580, 4-(4-fluorophenyl)-2-(4-methylsulfinylphenyl)-5-(4-pyridyl)-1H-imidazole] | No signs of adhesions | No cases of intestinal wall adhesions | 2 | –
2 | Conjugates of Polyvinylimidazole and 4-(4-Fluorinephenyl)-2-(4-Methylsulphinylphenyl)-5-(4-Pyridyl)-1H-Imidazole [Example 3] | – | – | – | No signs of adhesions
